# Laboratory results taken from patent US20170107212A1, “NOVEL COMPOUNDS” (Bayer Pharma Aktiengesellschaft, priority 2014, published 2017).
# Structures can show the parent of a compound that is named as a salt.
# Experiments:
# HCT116 FOPFlash = experiment: Control reporter assay, HCT116 FOP control vector (non-functional TCF elements), luciferase expression; assay type: cell-based; conditions: HCT116 FOP control reporter cells, 36 hours incubation, dilution series 50 μM to 15 nM
# Procedure: In a parallel approach, HCT116 cells were cotransfected with the FOP control vector and pcDNA3. The FOP vector is identical to the TOP construct, but it contains instead of functional TCF elements a randomized, non-functional sequence. For this transfection a stable transfected cell line was generated as well.
# (§1) In preparation of the assay, the two cell lines were plated 24 hours before at 10000 cells per well of a 384 micro titre plate (MTP) in 30 μL growth medium. Selective inhibitory activity for small molecules on the mutated Wnt pathway was determined after parallel incubation of both (TOP and FOP) HCT116 reporter cell lines with a compound dilution series from 50 μM to 15 nM in steps of 3.16-fold dilutions in CAFTY buffer (130 mM NaCl, 5 mM KCl, 20 mM HEPES, 1 mM MgCl2, 5 mM NaHCO3, pH 7.4) containing 2 mM Ca^2+ and 0.01% BSA. The compounds were thereby serially prediluted in 100% DMSO and thereafter in addition 50 fold into the CAFTY compound dilution buffer (described above). From this dilution 10 μL were added to the cells in 30 μL growth medium and incubated for 36 hours at 37° C. and 5% CO2. Thereafter luciferase assay buffer (1:1 mixture of luciferase substrate buffer (20 mM Tricine, 2.67 mM MgSO4, 0.1 mM EDTA, 4 mM DTT, 270 μM Coenzyme A, 470 μM Luciferin, 530 μM ATP, ph adjusted to pH 7.8 with a sufficient volume of 5M NaOH) and Triton buffer (30 mL Triton X-100, 115 mL glycerol, 308 mg Dithiothreitol, 4.45 g Na2HPO4.2H2O, 3.03 g TRIS HCl, ad 1 l H20, pH 7.8) was added as equal volume to the compound solution on the cells to determine luciferase expression as a measure of Wnt signaling activity in a luminometer.
# [1] = test system: constitutive active colorectal cancer cell (CRC) Wnt pathway, HCT116 TOPFlash; experiment: Cellular reporter assay, HCT116 Super TopFlash (constitutive active Wnt pathway), luciferase expression; assay type: cell-based; conditions: HCT116 Super TopFlash reporter cells, 36 hours incubation, dilution series 50 μM to 15 nM
# Procedure: In order to discover and characterize small molecules which inhibit the constitutive active colorectal cancer cell (CRC) Wnt pathway, a cellular reporter assay was employed. The corresponding assay cell was generated by transfection of the colorectal cancer cell line HCT116 (ATCC, #CCL-247) with the Super TopFlash vector (Morin, Science 275, 1997, 1787-1790; Molenaar et al., Cell 86 (3), 1996, 391-399). The HCT116 cell line is cultivated at 37° C. and 5% CO2 in DMEM/F-12 (Life Technologies, #11320-074), supplemented with 2 mM glutamine, 20 mM HEPES, 1.4 mM pyruvate, 0.15% Na-bicarbonate and 10% foetal bovine serum (GIBCO, #10270), this cancer cell line is pathophysiological relevant since it carries a deletion of position S45 in the β-catenin gene, leading to constitutive active Wnt signaling. Stable transfectants were generated by cotransfection with pcDNA3 and selection of stable transfected cells with 1 mg/ml G418.
# as §1
"IC50 (HCT116 FOPFlash; Homo sapiens, HCT-116, 36 h) [µM]","IC50 ([1]; Homo sapiens, HCT-116, 36 h) [µM]",SMILES,further results
≥ 50,≥ 50,"Cc1ncsc1-c1nnc(NC(=O)c2ccc(OC(F)(F)F)c(NC(=O)CN3CCN(C)CC3)c2)s1 [Example 111, 3-{[(4-methylpiperazin-1-yl)acetyl]amino}-N-[5-(4-methyl-1,3-thiazol-5-yl)-1,3,4-thiadiazol-2-yl]-4-(trifluoromethoxy)benzamide]",–
31,7.4,"CN1CCN(CC(=O)Nc2cc(C(=O)Nc3nnc(-c4ccnc(N)c4)s3)ccc2OC(F)(F)F)CC1 [Example 90, N-[5-(2-aminopyridin-4-yl)-1,3,4-thiadiazol-2-yl]-3-{[(4-methylpiperazin-1-yl)acetyl]amino}-4-(trifluoromethoxy)benzamide]",–
≥ 50,17.9,"Nc1ncc(-c2nnc(NC(=O)c3ccc(OC(F)(F)F)c(NC(=O)CN4CCOCC4)c3)s2)s1 [Example 104, N-[5-(2-amino-1,3-thiazol-5-yl)-1,3,4-thiadiazol-2-yl]-3-[(morpholin-4-ylacetyl)amino]-4-(trifluoromethoxy)benzamide]",–
≥ 50,35.6,"Cc1nccnc1-c1nnc(NC(=O)c2ccc(OC(F)(F)F)c(NC(=O)CN3CCOCC3)c2)s1 [Example 91, N-[5-(3-methylpyrazin-2-yl)-1,3,4-thiadiazol-2-yl]-3-[(morpholin-4-ylacetyl)amino]-4-(trifluoromethoxy)benzamide]",–
≥ 50,0.845,"Cc1cccnc1-c1nnc(NC(=O)c2ccc(OC(F)(F)F)c(NC(=O)CN3CCOCC3)c2)s1 [Example 89, N-[5-(3-methylpyridin-2-yl)-1,3,4-thiadiazol-2-yl]-3-[(morpholin-4-ylacetyl)amino]-4-(trifluoromethoxy)benzamide]",–
≥ 50,≥ 50,"Cc1ccncc1-c1nnc(NC(=O)c2ccc(OCC3COC3)c(NC(=O)CN3CCN(C)CC3)c2)s1 [Example 115, 3-{[(4-methylpiperazin-1-yl)acetyl]amino}-N-[5-(4-methylpyridin-3-yl)-1,3,4-thiadiazol-2-yl]-4-(oxetan-3-ylmethoxy)benzamide]",–
≥ 50,44,"O=C(CN1CCN(C2CC2)CC1)Nc1cc(C(=O)Nc2nnc(-c3cccnc3)s2)ccc1Cl [Example 86, 4-chloro-3-{[(4-cyclopropylpiperazin-1-yl)acetyl]amino}-N-[5-(pyridin-3-yl)-1,3,4-thiadiazol-2-yl]benzamide]",–
≥ 50,21.2,"Cc1csc(-c2nnc(NC(=O)c3ccc(OC(F)(F)F)c(NC(=O)CN4CCOCC4)c3)s2)n1 [Example 92, N-[5-(4-methyl-1,3-thiazol-2-yl)-1,3,4-thiadiazol-2-yl]-3-[(morpholin-4-ylacetyl)amino]-4-(trifluoromethoxy)benzamide]",–

# The next lines start with the compound.
SMILES,"IC50 (HCT116 FOPFlash; Homo sapiens, HCT-116, 36 h) [µM]","IC50 ([1]; Homo sapiens, HCT-116, 36 h) [µM]",further results
"CN1CCN(CC(=O)Nc2cc(C(=O)Nc3nnc(-c4cccnc4)s3)ccc2OC(F)(F)F)CC1 [Example 21, 3-{[(4-methylpiperazin-1-yl)acetyl]amino}-N-[5-(pyridin-3-yl)-1,3,4-thiadiazol-2-yl]-4-(trifluoromethoxy)benzamide]",–,–,IC50 (HCT116 FOPFlash): ≥ 50 µM; IC50 [1]: 0.315 µM
"CN1CCN(CC(=O)Nc2cc(C(=O)Nc3nnc(-c4cccnc4)s3)ccc2OCC(F)(F)F)CC1 [Example 50, 3-{[(4-methylpiperazin-1-yl)acetyl]amino}-N-[5-(pyridin-3-yl)-1,3,4-thiadiazol-2-yl]-4-(2,2,2-trifluoroethoxy)benzamide hydrochloride (1:1)]",20.5,0.293,–
"Cc1cccnc1-c1nnc(NC(=O)c2ccc(OC(F)(F)F)c(NC(=O)CN3CCN(C)CC3)c2)s1 [Example 42, 1-methyl-4-(2-{[5-{[5-(3-methylpyridin-2-yl)-1,3,4-thiadiazol-2-yl]carbamoyl}-2-(trifluoromethoxy)phenyl]amino}-2-oxoethyl)piperazin-1-ium hexafluorophosphate]",–,–,"IC50 (HCT116 FOPFlash; Homo sapiens, HCT-116): 38.5 µM; IC50 ([1]; Homo sapiens, HCT-116): 0.32 µM"
"Cc1ccncc1-c1nnc(NC(=O)c2ccc(OC(F)(F)F)c(NC(=O)CN3CCOCC3)c2)s1 [Example 71, N-[5-(4-methylpyridin-3-yl)-1,3,4-thiadiazol-2-yl]-3-[(morpholin-4-ylacetyl)amino]-4-(trifluoromethoxy)benzamide]",≥ 50,4.66,–
"CC(C(=O)Nc1cc(C(=O)Nc2ccc(-c3cccnc3)nc2)ccc1OC(F)(F)F)N1CCOCC1 (centres unmarked) [Example 8, N-(2,3′-bipyridin-5-yl)-3-{[2-(morpholin-4-yl)propanoyl]amino}-4-(trifluoromethoxy)benzamide]",≥ 50,0.0116,–
"CC(C(=O)Nc1cc(C(=O)Nc2ccc(-c3ccncc3)nc2)ccc1OC(F)(F)F)N1CCOCC1 (centres unmarked) [Example 22, N-(2,4′-bipyridin-5-yl)-3-{[2-(morpholin-4-yl)propanoyl]amino}-4-(trifluoromethoxy)benzamide]",≥ 50,0.285,–
"CN1CCN(CC(=O)Nc2cc(C(=O)Nc3nnc(-c4ccccn4)s3)ccc2OC(F)(F)F)CC1 [Example 9, 3-{[(4-methylpiperazin-1-yl)acetyl]amino}-N-[5-(pyridin-2-yl)-1,3,4-thiadiazol-2-yl]-4-(trifluoromethoxy)benzamide hydrochloride]",22.5,0.514,–
"Cc1ccncc1-c1nnc(NC(=O)c2ccc(OC3COC3)c(NC(=O)CN3CCOCC3)c2)s1 [Example 79, N-[5-(4-methylpyridin-3-yl)-1,3,4-thiadiazol-2-yl]-3-[(morpholin-4-ylacetyl)amino]-4-(oxetan-3-yloxy)benzamide]",≥ 50,0.24,–
"CN1CCN(C2(C(=O)Nc3cc(C(=O)Nc4nnc(-c5cncnc5)s4)ccc3OC(F)(F)F)CC2)CC1 [Example 29, 3-({[1-(4-methylpiperazin-1-yl)cyclopropyl]carbonyl}amino)-N-[5-(pyrimidin-5-yl)-1,3,4-thiadiazol-2-yl]-4-(trifluoromethoxy)benzamide]",≥ 50,0.206,–
"CN1CCN(CC(=O)Nc2cc(C(=O)Nc3nnc(-c4cccnc4)s3)c(F)cc2OC(F)(F)F)CC1 [Example 77, 2-fluoro-5-{[(4-methylpiperazin-1-yl)acetyl]amino}-N-[5-(pyridin-3-yl)-1,3,4-thiadiazol-2-yl]-4-(trifluoromethoxy)benzamide]",≥ 50,0.18,–
"CN1CCN(CC(=O)Nc2cc(C(=O)Nc3ccc(-c4cnc(N)nc4)cn3)ccc2OC(F)(F)F)CC1 [Example 12, N-[5-(2-aminopyrimidin-5-yl)pyridin-2-yl]-3-{[(4-methylpiperazin-1-yl)acetyl]amino}-4-(trifluoromethoxy)benzamide]",≥ 50,0.132,–
"CN1CCN(CC(=O)Nc2cc(C(=O)Nc3ccc(-c4ccc(N)nc4)cn3)ccc2OC(F)(F)F)CC1 [Example 10, N-(6′-amino-3,3′-bipyridin-6-yl)-3-{[(4-methylpiperazin-1-yl)acetyl]amino}-4-(trifluoromethoxy)benzamide]",≥ 50,0.058,–
"CN1CCN(CC(=O)Nc2cc(C(=O)Nc3cnc(-c4ccnc(N)c4)cn3)ccc2OC(F)(F)F)CC1 [Example 53, N-[5-(2-aminopyridin-4-yl)pyrazin-2-yl]-3-{[(4-methylpiperazin-1-yl)acetyl]amino}-4-(trifluoromethoxy)benzamide]",≥ 50,2,–
"Cc1ccncc1-c1nnc(NC(=O)c2ccc(OCC(F)(F)F)c(NC(=O)CN3CCN(C)CC3)c2)s1 [Example 61, 3-{[(4-methylpiperazin-1-yl)acetyl]amino}-N-[5-(4-methylpyridin-3-yl)-1,3,4-thiadiazol-2-yl]-4-(2,2,2-trifluoroethoxy)benzamide]",≥ 50,0.34,–
